Measured values published in patent US4197312A, “Alkali metal and alkaline earth metal salts of benzoylacetonitriles” (American Cyanamid Company, priority 1978, dated 1980).

Tests used:
[1] = system: Adjuvant induced arthritis; assay: Adjuvant induced arthritis in the rat (primary lesion, paw swelling); type: in vivo, rat (Royal Hart, Wistar strain); conditions: once daily days 0 to 13
Experimental: Adjuvant induced arthritis in the rat
Groups of three Royal Hart, Wistar strain rats weighing 200±10 g. each were injected intradermally in the right hind paw with Freund's adjuvant (dried human tubercle bacilli in a mineral oil vehicle) at a dose of 2 mg./kg. of body weight. The test compounds were administered orally in a 1.5% starch vehicle at various doses once daily on days 0 to 13 post challenge. Control rats were treated in a similar manner, but given only starch vehicle. On the 14th and 21st day post challenge the diameter of the injected paw was measured by micrometer caliper. The volume of inflamed paws were estimated from these measurements and the effects of each compound are expressed as percent inhibition of swelling was compared to controls. Table I records the results of these tests conducted with representative compounds of this invention and known anti-inflammatory agents. The active compounds of this invention suppress the progression of the arthritis and associated joint deterioration.

[2] = system: arthritic paw swelling; joint and bone deterioration; conditions: literature (S. Wong et al.; G. R. Bobalick et al.); cited from earlier work

Question: What does the source list for `CC(=O)Oc1ccccc1C(=O)O` [Aspirin]?
Answer: (Primary Lesion) % Inhibition of Swelling Day 14 ([1]; oral 50 mg./kg.): 23%; (Primary Lesion) % Inhibition of Swelling Day 21 ([1]; oral 50 mg./kg.): 3%; (Primary Lesion) % Inhibition of Swelling Day 14 ([1]; oral 100 mg./kg.): 36%; (Primary Lesion) % Inhibition of Swelling Day 21 ([1]; oral 100 mg./kg.): 13%; (Primary Lesion) % Inhibition of Swelling Day 14 ([1]; oral 200 mg./kg.): 48%; (Primary Lesion) % Inhibition of Swelling Day 21 ([1]; oral 200 mg./kg.): 27%; (Primary Lesion) % Inhibition of Swelling Day 14 ([1]; oral 400 mg./kg.): 73%; (Primary Lesion) % Inhibition of Swelling Day 21 ([1]; oral 400 mg./kg.): 48%

Question: With `CCCCC1C(=O)N(c2ccccc2)N(c2ccccc2)C1=O` [Phenylbutazone] as the molecule, how does the “(Primary Lesion) % Inhibition of Swelling Day 14” value ([1]; oral 18.5 mg./kg.) read?
Answer: Its value is 31%.

Question: And the “(Primary Lesion) % Inhibition of Swelling Day 21” value ([1]; oral 18.5 mg./kg.)?
Answer: The value was 7%.

Question: And the “(Primary Lesion) % Inhibition of Swelling Day 14” value ([1]; oral 37.5 mg./kg.)?
Answer: The value was 56%.

Question: And the “(Primary Lesion) % Inhibition of Swelling Day 21” value ([1]; oral 37.5 mg./kg.)?
Answer: Its value is 14%.

Question: What about the “(Primary Lesion) % Inhibition of Swelling Day 14” value ([1]; oral 75 mg./kg.) of the same molecule?
Answer: The value was 62%.

Question: What about the “(Primary Lesion) % Inhibition of Swelling Day 21” value ([1]; oral 75 mg./kg.) of the same molecule?
Answer: Its value is 28%.

Question: What about the “(Primary Lesion) % Inhibition of Swelling Day 14” value ([1]; oral 150 mg./kg.) of the same molecule?
Answer: Its value is 75%.

Question: What about the “(Primary Lesion) % Inhibition of Swelling Day 21” value ([1]; oral 150 mg./kg.) of the same molecule?
Answer: Its value is 44%.

Question: With `N#CCC(=O)c1ccc(F)cc1.[Na]` [p-Fluorobenzoylacetonitrile sodium salt, p-Fluorobenzoylacetonitrile, sodium salt] as the molecule, how does the “(Primary Lesion) % Inhibition of Swelling Day 14” value ([1]; oral 50 mg./kg.) read?
Answer: The value was 53%.

Question: And the “(Primary Lesion) % Inhibition of Swelling Day 21” value ([1]; oral 50 mg./kg.)?
Answer: The value was 32%.

Question: For `N#CCC(=O)c1ccccc1.[Na]` [Benzoylacetonitrile sodium salt, Benzoylacetonitrile, sodium salt], which “(Primary Lesion) % Inhibition of Swelling Day 14” value ([1]; oral 50 mg./kg.) is on record?
Answer: The value was 59%.

Question: What about the “(Primary Lesion) % Inhibition of Swelling Day 21” value ([1]; oral 50 mg./kg.) of the same molecule?
Answer: The value was 45%.

Question: What does the source list for `COc1ccc2c(c1)c(CC(=O)O)c(C)n2C(=O)c1ccc(Cl)cc1` [Indomethacin]?
Answer: arthritic paw swelling [2]: inhibit arthritic paw swelling; joint and bone deterioration [2]: prevent joint and bone deterioration; (Primary Lesion) % Inhibition of Swelling Day 14 ([1]; oral 0.25 mg./kg.): 30%; (Primary Lesion) % Inhibition of Swelling Day 21 ([1]; oral 0.25 mg./kg.): 4%; (Primary Lesion) % Inhibition of Swelling Day 14 ([1]; oral 0.5 mg./kg.): 40%; (Primary Lesion) % Inhibition of Swelling Day 21 ([1]; oral 0.5 mg./kg.): 20%; (Primary Lesion) % Inhibition of Swelling Day 14 ([1]; oral 1 mg./kg.): 46%; (Primary Lesion) % Inhibition of Swelling Day 21 ([1]; oral 1 mg./kg.): 19%; (Primary Lesion) % Inhibition of Swelling Day 14 ([1]; oral 2 mg./kg.): 51%; (Primary Lesion) % Inhibition of Swelling Day 21 ([1]; oral 2 mg./kg.): 24%
